# The source made the active and inactive calls. The rule behind the calls is not given here.
# Tests used:
# [1] = molecular target: T1, High affinity choline transporter 1 (Homo sapiens, UniProt Q9GZV3); experiment: human choline transporter blockers, potency – cell-based, 5-point CRC, membrane potential dye, dose response (AID 504840); format: functional
# T1 sequence (Q9GZV3 whole entry): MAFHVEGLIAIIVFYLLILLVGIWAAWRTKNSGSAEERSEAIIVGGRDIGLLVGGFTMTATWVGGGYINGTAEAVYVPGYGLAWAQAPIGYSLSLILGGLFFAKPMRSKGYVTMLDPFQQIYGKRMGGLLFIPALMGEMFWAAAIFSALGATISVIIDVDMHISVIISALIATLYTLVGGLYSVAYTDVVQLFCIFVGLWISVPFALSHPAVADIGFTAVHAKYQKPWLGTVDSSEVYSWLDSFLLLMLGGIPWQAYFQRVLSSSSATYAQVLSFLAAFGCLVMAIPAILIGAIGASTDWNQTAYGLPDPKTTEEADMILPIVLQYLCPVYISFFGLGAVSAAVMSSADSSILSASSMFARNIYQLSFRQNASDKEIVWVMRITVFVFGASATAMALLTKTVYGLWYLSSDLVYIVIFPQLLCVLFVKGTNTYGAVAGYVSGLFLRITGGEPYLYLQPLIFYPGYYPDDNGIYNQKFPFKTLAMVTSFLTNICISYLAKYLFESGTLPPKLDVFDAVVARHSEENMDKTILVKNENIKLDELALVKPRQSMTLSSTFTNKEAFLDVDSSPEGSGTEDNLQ
# [2] = molecular target: T1, High affinity choline transporter 1; experiment: human choline transporter blockers, potency – cell-based, 10-point CRC, membrane potential dye, dose response (AID 588401); format: functional;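 note: membrane potential dye fluorescence of choline-evoked depolarization via CHT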
smiles,measurement,setting,value
CCOc1ccccc1Nc1ccc2nonc2c1[N+](=O)[O-],IC50,[1],7.88 µM (active)
same,IC50,[2],4.28 µM (active)

# Reference: ChEMBL document CHEMBL1201862, “PubChem BioAssay data set” (2004)
